Active and inactive are the calls of the source. No rule for the calls is given here.

This data set has as its system CCRIS mutagenicity, Ames/micronucleus/aberration tests. In words: CCRIS mutagenicity studies.

For `O=C1CCC(=O)O1`, the mutagenic call was “inactive; negative” (Test System: AMES SALMONELLA TYPHIMURIUM, Strain/Indicator: TA97, Metabolic Activation: HAMSTER, LIVER, S-9, AROCLOR 1254 (10%), Method: PREINCUBATION); “inactive; negative” (Test System: AMES SALMONELLA TYPHIMURIUM, Strain/Indicator: TA97, Metabolic Activation: HAMSTER, LIVER, S-9, AROCLOR 1254 (30%), Method: PREINCUBATION); “inactive; negative” (Test System: AMES SALMONELLA TYPHIMURIUM, Strain/Indicator: TA97, Metabolic Activation: HAMSTER, LIVER, S-9, AROCLOR 1254, Method: PREINCUBATION); “inactive; negative” (Test System: AMES SALMONELLA TYPHIMURIUM, Strain/Indicator: TA97, Metabolic Activation: NONE, Method: PREINCUBATION); “inactive; negative” (Test System: AMES SALMONELLA TYPHIMURIUM, Strain/Indicator: TA97, Metabolic Activation: RAT, LIVER, S-9, AROCLOR 1254 (10%), Method: PREINCUBATION); “inactive; negative” (Test System: AMES SALMONELLA TYPHIMURIUM, Strain/Indicator: TA97, Metabolic Activation: RAT, LIVER, S-9, AROCLOR 1254 (30%), Method: PREINCUBATION). For the same compound, the mutagenic call was “inactive; negative” (Test System: AMES SALMONELLA TYPHIMURIUM, Strain/Indicator: TA97, Metabolic Activation: RAT, LIVER, S-9, AROCLOR 1254, Method: PREINCUBATION); “inactive; negative” (Test System: AMES SALMONELLA TYPHIMURIUM, Strain/Indicator: TA98, Metabolic Activation: HAMSTER, LIVER, S-9, AROCLOR 1254 (10%), Method: PREINCUBATION); “inactive; negative” (Test System: AMES SALMONELLA TYPHIMURIUM, Strain/Indicator: TA98, Metabolic Activation: HAMSTER, LIVER, S-9, AROCLOR 1254 (30%), Method: PREINCUBATION); “inactive; negative” (Test System: AMES SALMONELLA TYPHIMURIUM, Strain/Indicator: TA98, Metabolic Activation: HAMSTER, LIVER, S-9, AROCLOR 1254, Method: PREINCUBATION); “inactive; negative” (Test System: AMES SALMONELLA TYPHIMURIUM, Strain/Indicator: TA98, Metabolic Activation: NONE, Method: PREINCUBATION); “inactive; negative” (Test System: AMES SALMONELLA TYPHIMURIUM, Strain/Indicator: TA98, Metabolic Activation: RAT, LIVER, S-9, AROCLOR 1254 (10%), Method: PREINCUBATION). Also, the mutagenic call was “inactive; negative” (Test System: AMES SALMONELLA TYPHIMURIUM, Strain/Indicator: TA98, Metabolic Activation: RAT, LIVER, S-9, AROCLOR 1254 (30%), Method: PREINCUBATION); “inactive; negative” (Test System: AMES SALMONELLA TYPHIMURIUM, Strain/Indicator: TA98, Metabolic Activation: RAT, LIVER, S-9, AROCLOR 1254, Method: PREINCUBATION); “inactive; negative” (Test System: AMES SALMONELLA TYPHIMURIUM, Strain/Indicator: TA100, Metabolic Activation: HAMSTER, LIVER, S-9, AROCLOR 1254 (10%), Method: PREINCUBATION); “inactive; negative” (Test System: AMES SALMONELLA TYPHIMURIUM, Strain/Indicator: TA100, Metabolic Activation: HAMSTER, LIVER, S-9, AROCLOR 1254 (30%), Method: PREINCUBATION); “inactive; negative” (Test System: AMES SALMONELLA TYPHIMURIUM, Strain/Indicator: TA100, Metabolic Activation: HAMSTER, LIVER, S-9, AROCLOR 1254, Method: PREINCUBATION); “inactive; negative” (Test System: AMES SALMONELLA TYPHIMURIUM, Strain/Indicator: TA100, Metabolic Activation: NONE, Method: PREINCUBATION). In addition, the mutagenic call was “inactive; negative” (Test System: AMES SALMONELLA TYPHIMURIUM, Strain/Indicator: TA100, Metabolic Activation: RAT, LIVER, S-9, AROCLOR 1254 (10%), Method: PREINCUBATION); “inactive; negative” (Test System: AMES SALMONELLA TYPHIMURIUM, Strain/Indicator: TA100, Metabolic Activation: RAT, LIVER, S-9, AROCLOR 1254 (30%), Method: PREINCUBATION); “inactive; negative” (Test System: AMES SALMONELLA TYPHIMURIUM, Strain/Indicator: TA100, Metabolic Activation: RAT, LIVER, S-9, AROCLOR 1254, Method: PREINCUBATION); “inactive; negative” (Test System: AMES SALMONELLA TYPHIMURIUM, Strain/Indicator: TA1535, Metabolic Activation: HAMSTER, LIVER, S-9, AROCLOR 1254 (10%), Method: PREINCUBATION); “inactive; negative” (Test System: AMES SALMONELLA TYPHIMURIUM, Strain/Indicator: TA1535, Metabolic Activation: HAMSTER, LIVER, S-9, AROCLOR 1254 (30%), Method: PREINCUBATION); “inactive; negative” (Test System: AMES SALMONELLA TYPHIMURIUM, Strain/Indicator: TA1535, Metabolic Activation: HAMSTER, LIVER, S-9, AROCLOR 1254, Method: PREINCUBATION). Further, the mutagenic call runs as follows: (Test System: AMES SALMONELLA TYPHIMURIUM, Strain/Indicator: TA1535, Metabolic Activation: NONE, Method: PREINCUBATION) “inactive; negative”; (Test System: AMES SALMONELLA TYPHIMURIUM, Strain/Indicator: TA1535, Metabolic Activation: RAT, LIVER, S-9, AROCLOR 1254 (10%), Method: PREINCUBATION) “inactive; negative”; (Test System: AMES SALMONELLA TYPHIMURIUM, Strain/Indicator: TA1535, Metabolic Activation: RAT, LIVER, S-9, AROCLOR 1254 (30%), Method: PREINCUBATION) “inactive; negative”; (Test System: AMES SALMONELLA TYPHIMURIUM, Strain/Indicator: TA1535, Metabolic Activation: RAT, LIVER, S-9, AROCLOR 1254, Method: PREINCUBATION) “inactive; negative”; (Test System: AMES SALMONELLA TYPHIMURIUM, Strain/Indicator: TA1537, Metabolic Activation: HAMSTER, LIVER, S-9, AROCLOR 1254 (10%), Method: PREINCUBATION) “inactive; negative”; (Test System: AMES SALMONELLA TYPHIMURIUM, Strain/Indicator: TA1537, Metabolic Activation: HAMSTER, LIVER, S-9, AROCLOR 1254, Method: PREINCUBATION) “inactive; negative”. Moreover, the mutagenic call is “inactive; negative” (Test System: AMES SALMONELLA TYPHIMURIUM, Strain/Indicator: TA1537, Metabolic Activation: NONE, Method: PREINCUBATION); “inactive; negative” (Test System: AMES SALMONELLA TYPHIMURIUM, Strain/Indicator: TA1537, Metabolic Activation: RAT, LIVER, S-9, AROCLOR 1254 (10%), Method: PREINCUBATION); “inactive; negative” (Test System: AMES SALMONELLA TYPHIMURIUM, Strain/Indicator: TA1537, Metabolic Activation: RAT, LIVER, S-9, AROCLOR 1254, Method: PREINCUBATION).

For the compound `CC(=O)CCCCn1c(=O)c2c(ncn2C)n(C)c1=O`, the mutagenic call is, setting by setting: (End Point: IN VITRO CHROMOSOMAL ABERRATIONS, Test System: HUMAN PERIPHERAL BLOOD LYMPHOCYTES, Metabolic Activation: NONE) “active; positive (structural changes)”; (End Point: IN VITRO CHROMOSOMAL ABERRATIONS, Test System: V79 CELLS, Metabolic Activation: NONE) “active; positive (structural changes)”; (End Point: IN VITRO MICRONUCLEUS, Test System: HUMAN PERIPHERAL BLOOD LYMPHOCYTES, Metabolic Activation: NONE) “active; positive”; (End Point: IN VITRO MICRONUCLEUS, Test System: V79 CELLS, Metabolic Activation: NONE) “active; positive”; (Test System: CHINESE HAMSTER V-79, Strain/Indicator: V-79 (HGPRT)/6-THIOGUANINE, Metabolic Activation: NONE) “inactive; negative”; (Test System: CHINESE HAMSTER V-79, Strain/Indicator: V-79 (HGPRT)/6-THIOGUANINE, Metabolic Activation: S-9) “inactive; negative”.

Take `Fc1cc2cccnc2c2ncccc12`: where the note is “Test System: AMES SALMONELLA TYPHIMURIUM, Strain/Indicator: TA100, Metabolic Activation: RAT, LIVER, S-9, PHENOBARBITAL AND 5,6-BENZOFLAVONE, Method: PREINCUBATION”, the mutagenic call was “active; positive”.

Values taken from PubChem BioAssay AID1259407 (Chemical Carcinogenesis Research Information System (CCRIS), 2018).
